Assay results from patent US6387948B1, “8-Acetylarteminolide and process for preparing same” (Korea Research Institute of Bioscience and Biotechnology, priority 2000, dated 2002).
Converted amounts (≈) assume the structure as drawn. “And” between values parts separate entries of the source, which are not always exact repeats. Equal values may be shown once.

Experiments:
[1] = target: T1, farnesyl-protein transferase(FPTase) (Rattus norvegicus, UniProt Q02293+Q04631); experiment: Farnesyl-protein transferase inhibiting activity, scintillation proximity assay (SPA); assay type: biochemical, white rat; conditions: rat cerebrum FPTase, 3H-FPP, biotin-lamin B peptide; read-out: concentration required for inhibiting farnesyl protein transferase by 50%(IC50) (converted)
T1 construct: the cerebrum of a white rat(male Sprague Dowley weighing 100-150 g) was washed with physiological saline solution and homogenized; from tissue; host or cells: rat cerebrum (male Sprague Dawley)
Procedure: Farnesyl-protein transferase(FPTase) activity was determined in accordance with the scintillation proximity assay(SPA) method of Blown et al. described in Cell, 62, 1(1990) by using ^3H-farnesyl pyrophosphate(^3H-FPP) as a substrate.
First, the cerebrum of a white rat(male Sprague Dowley weighing 100-150 g) was washed with physiological saline solution and homogenized. The homogenized solution was centrifuged and partially purified by using Q sepharose fast flow column(Pharmacia, co.) to obtain famnesyl protein transferase(FPTase).
10 μl of 8-acetylarteminolide, 40 μl of FPTase obtained above, 10 μl of an assay buffer(50 mM Tris-HCl, pH 7.5, 25 mM MgCl2, 2 mM KCl, 5 mM DTT, 5 mM Na2HPO4, 0.01% Triton X-100), 20 μl of diluted ^3H-FPP and 20 μl of biotin-lamin B peptide were mixed together and the resulting mixture was reacted at room temperature for 30 minutes. 150 μl of SPA bead/stop reagent solution(Amersham, Inc. UK) was added to the mixture and the enzymatic activity was determined by examining the extent of biotin-lamin B peptide farneslyation, expressed by unit of count per minute(CPM), with a liquid scintillation counter.
The FPTase inhibiting activity was then calculated in accordance with the following equation: [formula] […]

[2] = tested on: Human breast cancer cell line MCF-7; experiment: Cell-cycle inhibiting activity, propidium iodide FACS analysis; assay type: cell-based; conditions: for % of cells G0/G1 phase / % of cells G2/M phase / % of cells S phase: 7.5 μl of 5 mg/ml DMSO solution in 7.5 ml medium
Procedure: Human breast cancer cell line MCF-7(ATCC HTB-22) was divided into 7.5 ml portions of RPMI1640 culture medium(GIBCO BRL) kept in T25 flasks and incubated at 37° C. under an atmosphere containing 5% CO2 for 12 hours. Added to the cell cultures of one group of flasks was 7.5 μl of DMSO solution containing 5 mg/ml of 8-acetylarteminolide obtained in Example 1, while 7.5 μl of pure DMSO was added to the cultures of another group of flasks as a control, followed by incubation at 37° C. under an atmosphere containing 5% CO2 for 12, 24 and 36 hours, respectively.
To examine the activity of inventive compound in inhibiting the progression of the cell cycle, each of the cultures was treated with trypsin and centrifuged at 200×g for 5 minutes, and then, the cell precipitate was washed twice with cold PBS. 3 ml of 70% ethanol was added thereto and the resulting mixture was left standing at −20° C. for 12 hours to fix the cell. The resulting mixture was centrifuged at 200×g for 5 minutes and the cell precipitate was washed twice with PBS to remove remaining ethanol. Added to the cell precipitate in sequence were 1 ml of PBS and 50 μl RNase A solution(100 μg/ml). The mixture was reacted at 37° C. for 30 minutes and 10 μl of PBS containing 1 mg/ml of propidium iodide was added thereto.
The cell cycles of 20,000 stained cells were analyzed by using Becton-Dickinson FACS Calibur and Becton-Dickinson Modifit cell-cycle analysis program.

Angiogenesis = experiment: Angiogenesis-suppressing activity, chorioallantoic membrane(CAM) assay; assay type: in vivo; conditions: Gallus gallus; 10 μg/ml, CAM of fertilized chicken eggs
Procedure: Angiogenesis was determined in accordance with the chorioallantoic membrane(CAM) assay method described in Kusaka et al., Biochem. Biophy. Res. Comm., 174, 1070(1991), using fertilized chicken eggs.
A fertilized chicken egg(Pulmuwon co., Korea) was incubated at 37-38° C. and a humidity of more than 90%. Here, 0 day-embryo means that the fertilized egg had been stored at 18° C. for less than 4 days since laying.
The pointed end of the fertilized egg was scratched with a knife, laid horizontally, the scratched site was punctured with a 5 ml syringe and 2 ml of albumin was extracted from the fertilized egg. The puncture hole was then sealed with a glass-tape. The fertilized egg, positioned such that the sealed hole was at the bottom, was incubated under the same condition described above.
The end of the fertilized egg where the air sac is located, i.e., the end opposite to the hole site was opened, a window having a diameter of 2-3 cm was installed therein, the window was sealed with a glass-tape, and the incubation was resumed.
By this time, a CAM of 2-5 mm diameter had developed. 8-Acetylarteminolide was dissolved in ethanol to a concentration of 10 μg/ml, 10 μl of the solution was dropped on quartered Thermanox coverslip(Nunc, Co.,) and dried in a clean bench. […]
Angiogenesis suppressing activity was then calculated in accordance with the following equation: [formula]

[3] = Solubility (physicochemical properties)
[4] = tested on: Human breast cancer cell line MCF-7; experiment: Cell-cycle inhibiting activity, propidium iodide FACS analysis; assay type: cell-based; conditions: MCF7, G2 to M phase progression, read-out: concentration required for inhibiting the progression of the cell cycle by 50%

IC50 [1]: ~1820 nM and ~1800 nM and 1820 nM and 1800 nM
Solubility Insoluble: ([3]; solvents in which insoluble): hexane, H2O
Solubility Soluble: ([3]; solvents in which soluble): alcohol, acetone, chloroform, DMSO
IC50 [4]: ~5 µg/mL (≈ 9.11 µM)
Structure (SMILES): C=C1C(=O)OC2C1CCC(C)(O)C13C=CC(C)(C21)C1(C3)C(=O)OC2C3C(C)=CC(=O)C3=C(C)CC(OC(C)=O)C21 (stereo not shown) [8-acetylarteminolide]
% of cells G0/G1 phase ([2]; MCF-7, 12 hours): 47.59%
% of cells G2/M phase ([2]; MCF-7, 12 hours): 18.06%
% of cells S phase ([2]; MCF-7, 12 hours): 34.35%
percentage of cells in the G2/M phase compared to the control cells ([2]; MCF-7, 24 hours): 10 fold
% of cells G0/G1 phase ([2]; MCF-7, 24 hours): 47.49%
% of cells G2/M phase ([2]; MCF-7, 24 hours): 27.97%
% of cells S phase ([2]; MCF-7, 24 hours): 24.54%
percentage of cells in the G2/M phase compared to the control cells ([2]; MCF-7, 36 hours): two-fold higher
% of cells G0/G1 phase ([2]; MCF-7, 36 hours): 73.2%
% of cells G2/M phase ([2]; MCF-7, 36 hours): 19.79%
% of cells S phase ([2]; MCF-7, 36 hours): 7.01%
inhibition at 10 µg/mL (Angiogenesis): 60%
